Test results from patent US8697716B2, “Method of inhibiting C-KIT kinase” (Janssen Pharmaceutica NV, priority 2006, dated 2014).
Structures can show the parent of a compound that is named as a salt.

These molecules were tested on BR-1 cells (assay: c-Kit BR-1 Assay (inhibition of BR-1 cell proliferation)). Details: Canis lupus familiaris; BR-1 dog mastocytoma line, constitutive-active mutant KIT; 72 hours, Cell TiterGlo.
Format: cell-based
Procedure: Immediately following plating (time zero), 6 wells containing cells are treated with 100 μl of Promega Cell TiterGlo reagent and incubated 10 min with shaking. The intensity of the Cell TiterGlo signal (1 sec/well) is determined using a luminometer. The remaining cells are cultured 72 hours (37° C. and 5% CO2). Following the 72-hour growth interval, 100 μl of Promega Cell TiterGlo reagent is added to each well. The plates are incubated an additional 10 minutes with shaking and the intensity of the Cell TiterGlo signal (1 sec/well) is determined using a luminometer. Cell proliferation is defined by the difference between the time zero and time 72 hour signals.

Structure (SMILES)	IC50
CN(C)CC(=O)N1CCC(c2ccc(NC(=O)c3nc(C#N)c[nH]3)c(C3=CCCCC3)c2)CC1 [Compound 38, 4-Cyano-1H-imidazole-2-carboxylic acid{2-cyclohex-1-enyl-4-[1-(2-dimethylamino-acetyl)-piperidin-4-yl]-phenyl}-amide]	0.09 µM
CS(=O)(=O)CCN1CCC(c2ccc(NC(=O)c3nc(C#N)c[nH]3)c(C3=CCCCC3)c2)CC1 [Compound 40, 4-Cyano-1H-imidazole-2-carboxylic acid{2-cyclohex-1-enyl-4-[1-(2-methanesulfonyl-ethyl)-piperidin-4-yl]-phenyl}-amide]	0.25 µM
CC1(C)CC=C(c2nc(C3CCNCC3)ccc2NC(=O)c2nc(C#N)c[nH]2)CC1 [Compound 54, 4-Cyano-1H-imidazole-2-carboxylic acid [6-(4,4-dimethyl-cyclohex-1-enyl)-1′,2′,3′,4′,5′,6′-hexahydro-[2,4′]bipyridinyl-5-yl]-amide trifluoroacetic acid salt]	0.9 µM
CN(C)CC(=O)N1CCC(c2ccc(NC(=O)c3nc(C#N)c[nH]3)c(C3=CCC(C)(C)CC3)n2)CC1 [Compound 55, 4-Cyano-1H-imidazole-2-carboxylic acid [1′-(2-dimethylamino-acetyl)-6-(4,4-dimethyl-cyclohex-1-enyl)-1′,2′,3′,4′,5′,6′-hexahydro-[2,4′]bipyridinyl-5-yl]-amide trifluoroacetic acid salt]	0.25 µM
CC1(C)CC=C(c2nc(C3CCN(CCS(C)(=O)=O)CC3)ccc2NC(=O)c2nc(C#N)c[nH]2)CC1 [Compound 56, 4-Cyano-1H-imidazole-2-carboxylic acid [6-(4,4-dimethyl-cyclohex-1-enyl)-1′-(2-methanesulfonyl-ethyl)-1′,2′,3′,4′,5′,6′-hexhydro-[2,4′]bipyridinyl-5-yl]-amide trifluoroacetic acid salt]	0.5 µM
CS(=O)(=O)CCN1CCC(c2ccc(NC(=O)c3ncc(C#N)[nH]3)c(C3=CCCCC3)n2)CC1 [Compound 58, 5-Cyano-1H-imidazole-2-carboxylic acid [6-cyclohex-1-enyl-1′-(2-methanesulfonyl-ethyl)-1′,2′,3′,4′,5′,6′-hexahydro-[2,4′]bipyridinyl-5-yl]-amide]	1 µM

The molecules below were run against isolated kinase domain of the human c-kit receptor (Homo sapiens (Human), UniProt P10721) (assay: c-Kit Fluorescence Polarization Kinase Assay). Details: 1 nM c-kit, 50 uM ATP, 45 minutes at room temperature; uncertainty +10%.
Chain of isolated kinase domain of the human c-kit receptor (P10721 589-937): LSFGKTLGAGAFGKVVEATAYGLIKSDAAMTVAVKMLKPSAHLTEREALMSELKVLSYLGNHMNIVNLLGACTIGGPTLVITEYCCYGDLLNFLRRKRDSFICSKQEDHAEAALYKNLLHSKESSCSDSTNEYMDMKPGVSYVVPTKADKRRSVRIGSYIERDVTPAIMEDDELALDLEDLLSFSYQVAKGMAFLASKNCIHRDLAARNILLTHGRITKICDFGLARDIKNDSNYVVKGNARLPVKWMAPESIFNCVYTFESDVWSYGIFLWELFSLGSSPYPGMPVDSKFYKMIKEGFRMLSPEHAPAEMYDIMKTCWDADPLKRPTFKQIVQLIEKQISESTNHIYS
Format: biochemical
Procedure: c-Kit Fluorescence Polarization Kinase Assay
The c-kit assay utilized the fluorescein-labeled phosphopeptide and the anti-phosphotyrosine antibody included in the Panvera Phospho-Tyrosine Kinase Kit (Green) supplied by Invitrogen. When c-kit phosphorylated the poly Glu4Tyr, the fluorescein-labeled phosphopeptide was displaced from the anti-phosphotyrosine antibody by the phosphorylated poly Glu4Tyr, thus decreasing the FP value. The c-kit kinase reaction was incubated at room temperature for 45 minutes under the following conditions: 1 nM c-kit (ProQinase, lot SP005), 100 ug/mL poly Glu4Tyr, 50 uM ATP, 5 mM MgCl2, 1 mM DTT, 0.01% Tween-20, 1% DMSO or compound in […], pH 7.5. The kinase reaction was stopped with the addition of EDTA. The fluorescein-labeled phosphopeptide and the anti-phosphotyrosine antibody were added and incubated for 30 minutes at room temperature and fluorescence polarization was read. Data points were an average of triplicate samples. Inhibition and IC50 data analysis were done with GraphPad Prism using a non-linear regression fit with a multiparamater, sigmoidal dose-response (variable slope) equation.

Structure (SMILES)	IC50
N#Cc1c[nH]c(C(=O)Nc2ccc(C3CCN(C(=O)CCN4CCOCC4)CC3)cc2C2=CCCCC2)n1 [Compound 8, 4-Cyano-1H-imidazole-2-carboxylic acid{2-cyclohex-1-enyl-4-[1-(3-morpholin-4-yl-propionyl)-piperidin-4-yl]-phenyl}-amide]	0.042 µM
CN1CCN(c2ccc(NC(=O)c3ccc(C#N)o3)c(C3=CCCCC3)c2)CC1 [Compound 11, 5-Cyano-furan-2-carboxylic acid [2-cyclohex-1-enyl-4-(4-methyl-piperazin-1-yl)-phenyl]-amide]	0.15 µM
CN1CCN(c2ccc(NC(=O)c3ccc(C#N)o3)c(C3=CCOCC3)c2)CC1 [Compound 12]	> 0.25 µM
N#Cc1c[nH]c(C(=O)Nc2ccc(C3CCNCC3)cc2C2=CCCCC2)c1 [Compound 13, 4-Cyano-1H-pyrrole-2-carboxylic acid (2-cyclohex-1-enyl-4-piperidin-4-yl-phenyl)-amide trifluoroacetic acid salt]	0.26 µM
N#Cc1c[nH]c(C(=O)Nc2ccc(C3CCNCC3)cc2C2=CCCCC2)n1 [Compound 14, 4-Cyano-1H-imidazole-2-carboxylic acid (2-cyclohex-1-enyl-4-piperidin-4-yl-phenyl)-amide trifluoroacetic acid salt]	0.071 µM
N#Cc1c[nH]c(C(=O)Nc2ccc(C3CCN(Cc4ccccn4)CC3)cc2C2=CCCCC2)n1 [Compound 21, 4-Cyano-1H-imidazole-2-carboxylic acid [2-cyclohex-1-enyl-4-(1-pyridin-2-ylmethyl-piperidin-4-yl)-phenyl]-amide trifluoroacetic acid salt]	0.05 µM
N#Cc1c[nH]c(C(=O)Nc2ccc(C3CCS(=O)(=O)CC3)cc2C2=CCCCC2)n1 [Compound 35, 4-Cyano-1H-imidazole-2-carboxylic acid [2-cyclohex-1-enyl-4-(1,1-dioxo-hexahydro-1λ^6-thiopyran-4-yl)-phenyl]-amide]	0.073 µM
N#Cc1c[nH]c(C(=O)Nc2ccc(C3CCN(C(=O)c4cc[n+]([O-])cc4)CC3)cc2C2=CCCCC2)n1 [Compound 41, 4-Cyano-1H-imidazole-2-carboxylic acid {2-cyclohex-1-enyl-4-[1-(1-oxy-pyridine-4-carbonyl)-piperidin-4-yl]-phenyl}-amide]	0.035 µM
C[C@@H]1CC(c2ccc(NC(=O)c3ncc(C#N)[nH]3)c(C3=CCCCC3)c2)C[C@H](C)N1 (stereo partly drawn) [Compound 51a, 5-Cyano-1H-imidazole-2-carboxylic acid [2-cyclohex-1-enyl-4-(cis-2,6-dimethyl-piperidin-4-yl)-phenyl]-amide bis trifluoroacetic acid salt]	0.0043 µM
N#Cc1cnc(C(=O)Nc2ccc(C3CCN(C(=O)[C@H](O)CO)CC3)cc2C2=CCCCC2)[nH]1 [Compound 52, 5-Cyano-1H-imidazole-2-carboxylic acid{2-cyclohex-1-enyl-4-[1-(R)-(+)-(2,3-dihydroxy-propionyl)-piperidin-4-yl]-phenyl}-amide]	0.008 µM

Second part, the molecule after the results:

IC50	Structure (SMILES)
0.057 µM	CC(=O)N1CCC(c2ccc(NC(=O)c3nc(C#N)c[nH]3)c(C3=CCCCC3)c2)CC1 [Compound 16, 4-Cyano-1H-imidazole-2-carboxylic acid [4-(1-acetyl-piperidin-4-yl)-2-cyclohex-1-enyl-phenyl]-amide]
0.026 µM	N#Cc1c[nH]c(C(=O)Nc2ccc(C3CCN(CCO)CC3)cc2C2=CCCCC2)n1 [Compound 26, 4-Cyano-1H-imidazole-2-carboxylic acid{2-cyclohex-1-enyl-4-[1-(2-hydroxy-ethyl)-piperidin-4-yl]-phenyl}-amide trifluoroacetic acid salt]
0.08 µM	N#CCCN1CCC(c2ccc(NC(=O)c3nc(C#N)c[nH]3)c(C3=CCCCC3)c2)CC1 [Compound 27, 4-Cyano-1H-imidazole-2-carboxylic acid {4-[1-(2-cyano-ethyl)-piperidin-4-yl]-2-cyclohex-1-enyl-phenyl}-amide trifluoroacetic acid salt]
> 0.25 µM	CC(=O)N1CCC(c2ccc(NC(=O)c3nc(C#N)c[nH]3)c(C3=CCS(=O)(=O)CC3)c2)CC1 [Compound 37, 4-Cyano-1H-imidazole-2-carboxylic acid [4-(1-acetyl-piperidin-4-yl)-2-(1,1-dioxo-1,2,3,6-tetrahydro-1λ^6-thiopyran-4-yl)-phenyl]-amide]
0.1 µM	N#Cc1c[nH]c(C(=O)Nc2ccc(C3CCN(CC(=O)O)CC3)cc2C2=CCCCC2)n1 [Compound 47, (4-{4-[(4-Cyano-1H-imidazole-2-carbonyl)-amino]-3-cyclohex-1-enyl-phenyl}-piperidin-1-yl)-acetic acid trifluoroacetic acid salt]
0.005 µM	CC(C)(N)CC(=O)N1CCC(c2ccc(NC(=O)c3nc(C#N)c[nH]3)c(C3=CCCCC3)c2)CC1 [Compound 48, 4-Cyano-1H-imidazole-2-carboxylic acid {4-[1-(3-amino-3-methyl-butyryl)-piperidin-4-yl]-2-cyclohex-1-enyl-phenyl}-amide trifluoroacetic acid salt]
0.012 µM	CN(C)CC(=O)N1CCC(c2ccc(NC(=O)c3nc(C#N)c[nH]3)c(C3=CCC(C)(C)CC3)n2)CC1 [Compound 55, 4-Cyano-1H-imidazole-2-carboxylic acid [1′-(2-dimethylamino-acetyl)-6-(4,4-dimethyl-cyclohex-1-enyl)-1′,2′,3′,4′,5′,6′-hexahydro-[2,4′]bipyridinyl-5-yl]-amide trifluoroacetic acid salt]
0.039 µM	CC1(C)CC=C(c2nc(C3CCN(CCS(C)(=O)=O)CC3)ccc2NC(=O)c2nc(C#N)c[nH]2)CC1 [Compound 56, 4-Cyano-1H-imidazole-2-carboxylic acid [6-(4,4-dimethyl-cyclohex-1-enyl)-1′-(2-methanesulfonyl-ethyl)-1′,2′,3′,4′,5′,6′-hexhydro-[2,4′]bipyridinyl-5-yl]-amide trifluoroacetic acid salt]
